{"source": "patent US6358885B1", "about": "“Substituted phenylheterocyclic herbicides” (Mississippi State University, priority 1992, dated 2002)", "assay_in_all_cases": "Test B preemergence/postemergence greenhouse plant response rating 0 to 10", "conditions_in_all_cases": "0 to 10 scale", "key": {"barley": {"tested_on": "barley", "type": "in vivo, Hordeum vulgare", "description": "(§1) Seeds of barley (Hordeum vulgare), barnyardgrass (Echinochloa crus-galli), bedstraw (Galium aparine), blackgrass (Alopecurus myosuroides), […] (Bromus secalinus), chickweed (Stellaria media), cocklebur (Xanthium pensylvanicum), corn (Zea mays), cotton (Gossypium hirsutum), crabgrass (Digitaria spp.), giant foxtail (Setaria faberii), lambsquarters (Chenopodium album), morningglory (Ipomoea hederacea), rape (Brassica napus), rice (Oryza sativa), sorghum (Sorghum bicolor), soybean (Glycine max), sugar beet (Beta vulgaris), velvetleaf (Abutilon theophrasti), wheat (Triticum aestivum), wild buckwheat (Polygonum convolvulus), and wild oat (Avena fatua) and purple nutsedge. (Cyperus rotundus) tubers were planted and treated preemergence with test chemicals dissolved in a non-phytotoxic solvent. At the same time, these crop and weed species were also treated with postemergence applications of test chemicals. Plants ranged in height from two to eighteen cm (one to four leaf stage) for postemergence treatments. Treated plants and controls were maintained in a greenhouse for twelve to sixteen days, after which all species were compared to controls and visually evaluated. […] A dash (-) response means no test result."}, "bedstraw": {"tested_on": "bedstraw", "type": "in vivo, Galium aparine", "description": "as §1"}, "blackgrass": {"tested_on": "blackgrass", "type": "in vivo, Alopecurus myosuroides", "description": "as §1"}, "cheatgrass": {"tested_on": "cheatgrass", "type": "in vivo, Bromus secalinus", "description": "as §1"}, "chickweed": {"tested_on": "chickweed", "type": "in vivo, Stellaria media", "description": "as §1"}, "lambsquarters": {"tested_on": "lambsquarters", "type": "in vivo, Chenopodium album", "description": "as §1"}, "rape": {"tested_on": "rape", "type": "in vivo, Brassica napus", "description": "as §1"}, "sugar beet": {"tested_on": "sugar beet", "type": "in vivo, Beta vulgaris", "description": "as §1"}, "wheat": {"tested_on": "wheat", "type": "in vivo, Triticum aestivum", "description": "as §1"}, "wild buckwheat": {"tested_on": "wild buckwheat", "type": "in vivo, Polygonum convolvulus", "description": "as §1"}, "wild oat": {"tested_on": "wild oat", "type": "in vivo, Avena fatua", "description": "as §1"}}}
{"smiles": "Fc1cc(Cl)c(-c2ccccc2)cc1-c1nn2c(c1Cl)CCCC2", "note": "[Compound 46]", "values": [{"measurement": "Plant response rating, Barley", "setting": "barley; POSTEMERGENCE, Rate 50 g/ha", "value": 2}, {"measurement": "Plant response rating, Barley", "setting": "barley; POSTEMERGENCE, Rate 200 g/ha", "value": 3}, {"measurement": "Plant response rating, Barley", "setting": "barley; PREEMERGENCE, Rate 50 g/ha", "value": 0}, {"measurement": "Plant response rating, Barley", "setting": "barley; Rate 200 g/ha, PREEMERGENCE", "value": 0}, {"measurement": "Plant response rating, Bedstraw", "setting": "bedstraw; POSTEMERGENCE, Rate 50 g/ha", "value": 6}, {"measurement": "Plant response rating, Bedstraw", "setting": "bedstraw; POSTEMERGENCE, Rate 200 g/ha", "value": 8}, {"measurement": "Plant response rating, Bedstraw", "setting": "bedstraw; PREEMERGENCE, Rate 50 g/ha", "value": 0}, {"measurement": "Plant response rating, Bedstraw", "setting": "bedstraw; Rate 200 g/ha, PREEMERGENCE", "value": 2}, {"measurement": "Plant response rating, Blackgrass", "setting": "blackgrass; POSTEMERGENCE, Rate 50 g/ha", "value": 2}, {"measurement": "Plant response rating, Blackgrass", "setting": "blackgrass; POSTEMERGENCE, Rate 200 g/ha", "value": 3}, {"measurement": "Plant response rating, Blackgrass", "setting": "blackgrass; PREEMERGENCE, Rate 50 g/ha", "value": 0}, {"measurement": "Plant response rating, Blackgrass", "setting": "blackgrass; Rate 200 g/ha, PREEMERGENCE", "value": 0}, {"measurement": "Plant response rating, Cheatgrass", "setting": "cheatgrass; POSTEMERGENCE, Rate 50 g/ha", "value": 3}, {"measurement": "Plant response rating, Cheatgrass", "setting": "cheatgrass; POSTEMERGENCE, Rate 200 g/ha", "value": 4}, {"measurement": "Plant response rating, Cheatgrass", "setting": "cheatgrass; PREEMERGENCE, Rate 50 g/ha", "value": 0}, {"measurement": "Plant response rating, Cheatgrass", "setting": "cheatgrass; Rate 200 g/ha, PREEMERGENCE", "value": 0}, {"measurement": "Plant response rating, Chickweed", "setting": "chickweed; POSTEMERGENCE, Rate 50 g/ha", "value": 3}, {"measurement": "Plant response rating, Chickweed", "setting": "chickweed; POSTEMERGENCE, Rate 200 g/ha", "value": 3}, {"measurement": "Plant response rating, Chickweed", "setting": "chickweed; PREEMERGENCE, Rate 50 g/ha", "value": 0}, {"measurement": "Plant response rating, Chickweed", "setting": "chickweed; Rate 200 g/ha, PREEMERGENCE", "value": 2}, {"measurement": "Plant response rating, Lambsquarter", "setting": "lambsquarters; POSTEMERGENCE, Rate 50 g/ha", "value": 9}, {"measurement": "Plant response rating, Lambsquarter", "setting": "lambsquarters; PREEMERGENCE, Rate 50 g/ha", "value": 0}, {"measurement": "Plant response rating, Lambsquarter", "setting": "lambsquarters; Rate 200 g/ha, POSTEMERGENCE", "value": 10}, {"measurement": "Plant response rating, Lambsquarter", "setting": "lambsquarters; Rate 200 g/ha, PREEMERGENCE", "value": 9}, {"measurement": "Plant response rating, Rape", "setting": "rape; POSTEMERGENCE, Rate 50 g/ha", "value": 4}, {"measurement": "Plant response rating, Rape", "setting": "rape; PREEMERGENCE, Rate 50 g/ha", "value": 0}, {"measurement": "Plant response rating, Rape", "setting": "rape; Rate 200 g/ha, POSTEMERGENCE", "value": 4}, {"measurement": "Plant response rating, Rape", "setting": "rape; Rate 200 g/ha, PREEMERGENCE", "value": 0}, {"measurement": "Plant response rating, Sugar beet", "setting": "sugar beet; POSTEMERGENCE, Rate 50 g/ha", "value": 10}, {"measurement": "Plant response rating, Sugar beet", "setting": "sugar beet; PREEMERGENCE, Rate 50 g/ha", "value": 0}, {"measurement": "Plant response rating, Sugar beet", "setting": "sugar beet; Rate 200 g/ha, POSTEMERGENCE", "value": 9}, {"measurement": "Plant response rating, Sugar beet", "setting": "sugar beet; Rate 200 g/ha, PREEMERGENCE", "value": 7}, {"measurement": "Plant response rating, Wheat", "setting": "wheat; POSTEMERGENCE, Rate 50 g/ha", "value": 2}, {"measurement": "Plant response rating, Wheat", "setting": "wheat; PREEMERGENCE, Rate 50 g/ha", "value": 0}, {"measurement": "Plant response rating, Wheat", "setting": "wheat; Rate 200 g/ha, POSTEMERGENCE", "value": 3}, {"measurement": "Plant response rating, Wheat", "setting": "wheat; Rate 200 g/ha, PREEMERGENCE", "value": 0}, {"measurement": "Plant response rating, Wild buckwheat", "setting": "wild buckwheat; POSTEMERGENCE, Rate 50 g/ha", "value": 6}, {"measurement": "Plant response rating, Wild buckwheat", "setting": "wild buckwheat; PREEMERGENCE, Rate 50 g/ha", "value": 0}, {"measurement": "Plant response rating, Wild buckwheat", "setting": "wild buckwheat; Rate 200 g/ha, POSTEMERGENCE", "value": 10}, {"measurement": "Plant response rating, Wild buckwheat", "setting": "wild buckwheat; Rate 200 g/ha, PREEMERGENCE", "value": 4}, {"measurement": "Plant response rating, Wild oat", "setting": "wild oat; POSTEMERGENCE, Rate 50 g/ha", "value": 2}, {"measurement": "Plant response rating, Wild oat", "setting": "wild oat; PREEMERGENCE, Rate 50 g/ha", "value": 0}, {"measurement": "Plant response rating, Wild oat", "setting": "wild oat; Rate 200 g/ha, POSTEMERGENCE", "value": 2}]}
